Experimental data reported in patent US7947312B2, “Method of preparation and composition of a water soluble extract of the bioactive component of the plant species Uncaria for enhancing immune, anti-inflammatory, anti-tumor and DNA repair processes of warm blooded animals” (priority 2002, dated 2011).
Values belong to the compound of their own block, whether it stands above or below them.

Legend:
[1] = Acid and base hydrolysis of QAL and QA measured by Bartos reaction (Table 3); format: physicochemical; conditions: 500 μg/test
Source text: To further characterize the QA analogs as the active ingredients in C-MED-100® in vitro, we determined the influence of base hydrolysis on the chemistry and biological activity of C-MED-100®. QAL is in fact a cyclic ester of QA, and as such it is an example representing the general class of QA esters. Elution from silica gel with 1% ammonia were the mandated chemical conditions necessary to remove the QA analog (i.e., active ingredient) from silica gel, which in turn favored the base hydrolysis of QA esters such as QAL to QA. If so, then identification of QA after base hydrolysis from the elution of silica gel, would then be consistent with the natural occurrence in C-MED-100® of a QA ester at Rf=0.2-0.3. […] It is quite clear that either strong acid or base treatment converted QAL to QA, and left only QA remaining, thus supporting the fact that the isolation of QA from C-MED-100® after base elution from silica gel was likely to have been originally present as a QA ester.

[2] = tested on: HL-60 human leukemic cells; assay: In vitro cytotoxicity in HL-60 cells, MTT assay (Table 2); format: cell-based
Experimental: In Table 2, the in vitro cytotoxicity of the various components were determined in HL-60 human leukemic cells using the MTT assay and calculation of IC50 values as described in detail elsewhere. Quinic acid ester content was determined by the Bartos method (Bartos, 1980). […] The quinic acid traveling between Rf=0.2-0.3 was eluted from the TLC plates with 1% aqueous ammonia and the relative quantity estimated by absorption at 200 nm as ± being less than 0.050 and “++++” denoting the highest amount detected, with a decrease in the number of “+” signs corresponding to a decrease in the amount of QA detected.

HL-60 W6899 cells = assay: HL-60 bioassay, microculture 5 days, clonogenicity estimated by MTT assay (Table 1); format: cell-based, human; conditions: parameters are approximations
Experimental: An assay of biological activity of C-MED-100®'s active ingredient is prepared as follows: HL-60 […] cells are exposed in microculture at 5000 cells per well (96-well plates) for 5 days at 37 ? C. in a CO2 incubator. After incubation, the cells are washed with saline and clonogenicity estimated by MTT assay.

IκBα = assay: Western blotting of IκBα and phosphorylated IκBα in LPS-stimulated 70Z/3 cells; format: cell-based, mouse; conditions: QA 2 mg/ml or PDTC 100 μM
Experimental: FIGS. 5C and 5D illustrate 70Z/3 cells (5×10^6) that were pre-treated with QA (2 mg/ml) or with PDTC (100 μM) as a positive control for two hours and thereafter stimulated with LPS (25 μg/ml) for the indicated time. Cytoplasmic extracts equalized for protein concentration were analyzed by western blotting using IκBα-specific antibodies. One representative experiment out of three (FIG. 5C) and one representative experiment out of two (FIG. 5D) are presented.
Preparation of cell extracts: The 70Z/3 cells were pretreated with QA (1 or 2 mg/ml) or with PDTC for 2 hours before they were stimulated with LPS for various time points. Whole cell extracts from the 70Z/3 cells (1×10^6) were prepared for analysis of the NF-κB signaling pathway. The cells were washed twice in PBS, resuspended in lysis buffer (75 mM Tris-HCl (pH 8.0), 100 mM NaCl, 5 mM KCl, 3 mM MgCl2, 2% NP-40, 1 mM PMSF and a protease inhibitor cocktail) (Roche Diagnostics Scandinavia AB) and incubated on ice for 10 min. The cell debris was pelleted and the supernatants were stored at −70° C. until Western Blot was performed.
Western blotting: Cellular extracts from 70Z/3 cells were separated on a 10% SDS polyacrylamide gel and the proteins were transferred to a nylon membrane. After blocking overnight in 5% dry fat-free milk in TBST, the membrane was incubated for 2 hrs with primary antibodies specific either to IκBα or to phosphorylated IκBα (both from Cell Signaling Technology Inc, Beverly, Mass.). The membranes were thereafter washed three times in TBST, and incubated with HRP-conjugated goat anti-rabbit antibodies (Amersham Pharmacia). The membranes were washed three times and chemoluminescence was detected using the ECL-reagent (Amersham Pharmacia) and x-ray film (CEA AB, Strängnäs, Sweden).

[3] = tested on: human HL-60 leukemic cells; assay: In vitro growth inhibition by QA salts in cultured HL-60 cells, MTT, 72 hr (FIG. 8); format: cell-based; conditions: HL-60 cells
Experimental: QA was purchased from Sigma (>99%). QA salts were synthesized by neutralization with the appropriate base, i.e., NH4OH, NaOH, Ca(OH)2, Zn(OH)2, LiOH, KOH, lysine or histidine. Serial dilutions of test compounds were added to human HL-60 leukemic cells (0.05×10^6 cells/ml) in 96-well, flat bottomed microtiter plates to give final concentrations in the cultures up to 3000 μg/ml. The plates were incubated for 72 hr at 37 C, pulsed with 20 μl MTT (5 mg/ml) for 3 hr, and the color estimated spectrophotometrically at 540 nm as described previously. (Schweitzer, C M et al. Spectrophotometric determination of clonogenic capacity of leukemic cells in semisolid microtiter culture systems. Experimental Hematology 21: 573-578, 1993). IC50 values were calculated and compared based on the live/dead ratio of cells.

% Degraded (Bartos Reaction A490 nm) ([1]; 1M NaOH): 74.1%
% Degraded (Bartos Reaction A490 nm) ([1]; 1N HCl): 58.2%
Bioassay after 1% aqueous ammonia IC50 HL-60 cells (HL-60 W6899 cells; after 1% aqueous ammonia): >3000 µg/mL
Bioassay efficacy using IC50 in HL-60 cells (HL-60 W6899 cells): 80 µg/mL
Structure (SMILES): O=C1O[C@@H]2C[C@@]1(O)C[C@@H](O)[C@H]2O [Quinic acid lactone, quinic acid lactone]
HL-60 MTT IC50 ([2]; no base hydrolysis, listed as QAL #2 batch syn.): >2300 µg/mL
HL-60 MTT IC50 ([2]; sample treated +2 M NaOH, 2 hr): 1600 µg/mL

Structure (SMILES): S=C(S)N1CCCC1 [PDTC, pyrollidine dithiocarbamate, reference compound]
phosphorylation of IκBα (IκBα): potently inhibited
LPS-induced breakdown of IκBα (IκBα; 2 h pretreatment): inhibits both the breakdown of IκBα and its resynthesis

Structure (SMILES): O=C([O-])C1(O)CC(O)C(O)[C@H](O)C1.[Na+] (some centres unmarked) [Quinic acid (QA) sodium salt]
HL-60 MTT IC50 ([2]; no base hydrolysis): 1500 µg/mL
in vitro cytotoxicity compared to C-MED-100 (FIG. 8) [3]: in vitro cytotoxicity comparable to that of C-MED-100®

Structure (SMILES): O=C1O[C@@H]2C[C@@]1(O)C[C@@H](O)[C@H]2O [QAL #1 batch syn., quinic acid lactone]
HL-60 MTT IC50 ([2]; no base hydrolysis): 1200 µg/mL
